According to patent US20110053896A1, “OSMOLYTES FOR THE TREATMENT OF ALLERGIC OR VIRAL RESPIRATORY DISEASES” (priority 2007, published 2011):

Columns and labels:
ICAM-1 expression [1] = assay: Reduction of ICAM-1 expression by DGP in UVA-irradiated ceratinozytes; type: cell-based; conditions: Human ceratinozytes pretreated with DGP for 24 hours, UVA radiation
Procedure: Human ceratinozytes were pretreated with DGP for 24 hours. After radiation using UVA rays (environment noxes) the quantity of ICAM-1 was measured.

[2] = tested on: Balb/c mice sensitized with ovalbumin (acute allergic asthma); assay: Ovalbumin-sensitized mice, allergic asthma model, intranasal ectoine solution; type: in vivo; conditions: 50 μl intranasal, 14 treatments day 0 to 32, compared to 0.9% salt solution
Procedure: Seven-months-old mice of the inbred strain Balb/c were sensitized by injecting them intraperitoneally with a mixture of ovalbumin and aluminum hydroxide contained in a total volume of 200 μl buffer (PBS). The injection was made twice, once on day 0 and once on day 14. The size of each group tested was n=8.
In order to subsequently induce the allergic reaction in the lungs of the mice, i.e. s to trigger the acute allergic asthma, the mice were treated inhalatively with an ovalbumin aerosol for 30 minutes each on days 28 and 38. For this purpose, the mice were placed in a plexiglass chamber, into which a misty 1% OVA solution was introduced through an inhaler.
For ectoine treatment, the animals were anesthetized with a mixture of ketamine and rompune. 50 μl of a sterile ectoine solution or 0.9% salt solution was applied in front of the nostrils with glass capillaries until the solution was completed inhaled. The treatments—14 in all—started on day 0. The last treatment was administered on day 32.
The end points of the study were defined as the bronchial hyperreactivity as measured with a plethysmograph, the b ronchoalveolar lavage (BAL) cellular composition and the release of OVA-specific igE and igG1 antibodies.

[3] = tested on: rats sensitized to ovalbumin (OVA), early allergic reaction; assay: Ovalbumin-induced allergic asthma in rats, early allergic reaction (lung function); type: in vivo; conditions: intratracheal pretreatment 48 h, 24 h and 2 h before ovalbumin challenge, in comparison to the negative control
From the text: (§1) The study population consisted of 4 treatment groups, a reference group, a sham-sensitized and vehicle-treated negative control group, and a vehicle-treated positive control group. The group size was n=16.
In the first phase of the study, all animals, except for the sham-sensitized group, were systemically sensitized to ovalbumin (OVA) plus adjuvants, the negative control group was given NaCl. On days 7 and 14, the animals were intratracheally boosted with OVA (to enhance the sensitizing effect). 48 h, 24 h and 2 h before the final inhalative allergen exposure was performed, three groups and a positive control group were subjected to an intratracheal pretreatment with the test substance, ectoine, at three dosage levels. […] After expiry of the waiting period, the animals were anesthetized, orotracheally intubated in a gentle manner and—after placement of an oesophagus catheter and allowing the mice to reach a steady state—their lung functions (including such parameters as tidal volume, breathing frequency, dynamic compliance and lung resistance) were measured body-plethysmographically prior to provocation. The data was collected and evaluated using a computer program (HEM, Notocord/France) specifically developed for these lung function tests.
The lung function parameters were continuously recorded during and after exposure in order to measure bronchospasm.

[4] = tested on: rats sensitized to ovalbumin (OVA), late allergic reaction; assay: Ovalbumin-induced allergic asthma in rats, late allergic reaction (hyperreactivity, BAL); type: in vivo; conditions: 24 h after the ovalbumin challenge, acetyl-choline hyperreactivity and BAL cell counts, compared to negative control group
From the text: as §1
In the first phase of the study, all animals, except for the sham-sensitized group, were systemically sensitized to ovalbumin (OVA) plus adjuvants, the negative control group was given NaCl. On days 7 and 14, the animals were intratracheally boosted with OVA (to enhance the sensitizing effect). […] The two control groups were given only NaCl. After expiry of the waiting period, the animals were anesthetized, orotracheally intubated in a gentle manner and—after placement of an oesophagus catheter and allowing the mice to reach a steady state—their lung functions (including such parameters as tidal volume, breathing frequency, dynamic compliance and lung resistance) were measured body-plethysmographically prior to provocation. The data was collected and evaluated using a computer program (HEM, Notocord/France) specifically developed for these lung function tests.
The late allergic phase was tested 24 h after the ovalbumin challenge. First the animals were tested for airway hyperreactivity to unspecific stimuli. […] Using the lavage liquid, the total and the differential cell counts were determined including the number of esinophiles in the BAL.

ICAM-1 expression [5] = assay: Inhibition of ICAM-1 expression by ectoine (RT-PCR, UVA radiation); type: cell-based; conditions: ceratinzytes pre-incubated for 24 h with 1 mM ectoine, UVA 30 J/cm^2, RT-PCR relative to β-actin
Procedure: ICAM-1 expression was measured using differential reverse transcriptase-PCR (RT-PCR) and the Applied Biosystem Kit. To take account of the normal variations in the gene expression of skin cells, ICAM-1 expression is put into relationship to the constitutively formed house-keeping gene, β-actin. The semi-quantitive analysis of RT-PCR was performed by ion exchange chromatography using a UV spectrophotometer (A260). (A) Non-pretreated, radiated control sample (B) pre-incubated for 24 h with 1 mM RonaCare™ Ectoin and radiated with a single dose of 30 J/cm^2 or (C) pre-incubated for 24 h with 1 mM ectoine, non-irradiated. UVA radiation induces upregulation of ICAM-1 expression.

## O=P(O)(OCC(O)CO)OCC(O)CO (centres unmarked) [DGP, 1,1-diglycerol phosphate]
ICAM-1 expression [1]
  inhibition of ICAM-1 expression: 49%

## CC1=NCC[C@@H](C(=O)O)N1 [ectoine]
[2]
  effect on bronchial hyperreactivity, BAL cellular composition and release of OVA-specific igE and igG1 antibodies: significant positive effect
[3]
  effect on lung function parameters (early allergic reaction, bronchospasm): significant positive effect
[4]
  effect on the late allergic reaction: positive effect
ICAM-1 expression [5]
  ICAM-1 induction caused by UVA radiation: almost completely neutralize
